Test results: patent publication US9486471B2, “Combination therapy for the treatment of cancer” (McMaster University, priority 2012, dated 2016)
Where a name gives a salt, the structure may show the parent alone. Read-outs that look alike come from different tables or passages of the source.

Experiments:
[1] = tested on: AML-OCI2 and AML-OCI3 cell lines; assay: Volumetric cell counting of AML cell lines treated with DR antagonists and agonists; format: cell-based, human; conditions: 72 h, serum-free conditions
Experimental: Volumetric Cell Counting. The number of AML-OCI2 and AML-OCI3 cells present after 72 h treatment with DR antagonists (FIG. 16b) and agonist (FIG. 16c-d) were counted by measuring the number of events within a fixed volume following the grating strategy defined by forward scatter and side scatter clustering, 7AAD− and Hoechst+.
Due to the bioavailability of dopamine in fetal bovine serum (FBS) (Little et al., 2002), serum-free conditions were employed to assess the role of DRs in AML.

[2] = tested on: AML patient blast cells; assay: Methylcellulose colony-forming assay, AML patient blast-CFU; format: cell-based, human
Experimental: (§1) AML/HPSC Cell Culture. AML cell lines, namely, OCI-AML2 (M4), OCI-AML3 (M4), HL-60 (M2) and MV-4-11(M5) were cultured in RPMI (Gibco) supplemented with 5% heated-inactivated FBS (HyClone). For DR agonist studies with R(+)-7-Hydroxy-DPAT hydrobromide (Sigma), serum-free conditions were employed instead due to the prevalence of dopamine in FBS (Little et al., 2002). AML patient blasts were cultured in IMDM supplemented with 5% heated inactivated FBS (HyClone), 5 ng/mL IL3 (R&D systems), 5×10^−5 M β-mercaptoethanol (Sigma) and BIT (StemCell Technologies). HSC media contained IMDM supplemented with 1% BSA (Sigma), 100 ng/mL SCF (R&D systems), 100 ng/mL Flt-3L (R&D systems) and 20 ng/mL TPO (R&D systems). Patient HSPC and AML samples were treated with compound or DMSO-vehicle (0.1%) for 24 h prior to CFU plating or xenotransplantation studies.
(§2) Methylcellulose Colony-Forming Assay. AML patient or CB lin− cells were cultured 24 hours in the presence of compound or DMSO-vehicle (0.1%) control. AML cells were plated at 50 000 cells/mL in Methocult GF H4434 (Stem Cell Technologies). CB lin− cells were plated at 1000 cells/mL in Methocult GF H4434 (Stem Cell Technologies). Colonies were scored after 14 days of culture using standard morphological criteria.

[3] = tested on: v1H9-Oct4-GFP neoplastic hPSC; assay: Chemical screening of neoplastic hPSC reporter line (GFP / Hoechst, loss of pluripotency); format: cell-based, human; conditions: for activity at 10 µM: read-out: Hoechst % residual activity (% RA); for hit in extended screen (loss of pluripotency): 2446 compound screen, reduced mean GFP intensity and cell count
Experimental: In Vitro Culture Platform for Normal and Neoplastic hPSCs. Chemical screens involved v1H9-Oct4-GFP cells seeded at 5,000 cells per well in mouse embryonic fibroblast conditioned media (MEFCM) supplemented with 8 ng/ml bFGF. 24 hours later the media was exchanged for MEFCM with compounds at 10 μM and 0.1% DMSO, 0.1% DMSO (−BMP4) or 100 ng/ml of BMP4 and 0.1% DMSO (+BMP4) for 48 hours before being exchanged with fresh media with compound for a further 24 h (total compound treatment time 72 h) prior to being fixed and prepared for automated imaging and plate reader analysis. Confluent H9 & fibroblast-derived iPSC were seeded at 10,000 cells per well in MEFCM supplemented with 8 ng/ml bFGF. 24 hours later the cells were treated with compounds at 10 μM and 0.1% DMSO, 0.1% DMSO (−BMP4) or 100 ng/ml of BMP4 and 0.1% DMSO (+BMP4). Fresh MEFCM supplemented with compounds was exchanged daily for 5 days. On day 5, hPSC's were fixed and prepared for automated imaging and plate reader analysis. See supplementary experimental procedures for further details.
Imaging Neoplastic hPSC. Cells were fixed in 2% paraformaldehyde and stained with 10 μg/mL Hoechst 33342 (Invitrogen) with a Combi Multidrop Dispenser (Thermo). For experiments that involved Oct4 immunocytochemistry, a monoclonal antibody for Oct4 (BD) was used along with an Alexa-Fluor-647 secondary (Invitrogen). Immunocytochemical staining was performed by a Janus automated liquid handler (Perkin Elmer). Images were acquired at 10× N.A with an Arrayscan HCS VTI Reader (Cellomics) by means of epi-fluorescence illumination and standard filter sets.
Image Analysis. Image analysis was performed using custom scripts in Acapella software (Perkin Elmer). Nuclear objects were segmented from the Hoechst signal. For neoplastic cell lines, object intensity analysis was performed on GFP positive cells only. For normal cell lines, the fraction of Alexa-Fluor-647-positive cells was quantified. Images and well-level data were stored and analysed in a Columbus Database (Perkin Elmer) and further data analysis, compounds registration and hit identification in ActivityBase (IDBS).
These Collections have been previously scrutinized in numerous other mammalian cell lines (Diallo et al., 2010; Shoemaker, 2006).

[4] = tested on: HL-60, MV4-11 and OCI-AML3 leukemic cell lines; assay: Normalized cell number of leukemic cell lines after 72 h incubation (Examples 1, 3); format: cell-based, human; conditions: 10 μM
Experimental: All three lines are leukemic cell lines. […] Each condition had three replicates.
The dopamine receptor antagonist and phenothiazine-related compound chlorpromazine was also investigated for effects on the AML cell lines HL-60, MV4-11 and OCI-AML3. Testing was performed as set out in Example 1.

[5] = tested on: AML cell lines HL-60, OCI-AML2 and OCI-AML3
Experimental: All three lines are leukemic cell lines. HL-60 was derived from promyelocytic AML whereas MV 4-11 and OCI-AML3 are representative of AML. Each compound was incubated with the cells for 72 h. The control was DMSO (ie the vehicle used for the compound) for 72 h. Each condition had three replicates.
A series of dopamine receptor agonists, D3-antagonists, DR1 & 5-antagonists and multi-receptor antagonists were tested for cytotoxicity against three AML cell lines HL-60, OCI-AML2 and OCI-AML3. Testing was performed as set out in Example 1.

[6] = tested on: p53 and p21 in neoplastic hPSCs; assay: p53 and p21 accumulation in neoplastic hPSCs; format: cell-based, human; conditions: 24 h; 10 μM etoposide, 10 μM thioridazine, BMP4
Source text: Antibodies. Antibodies used for immunocytochemistry were the following: Oct3/4 (BD Trunsduction Laboratories, cat#611203), Sox2 (R&D, cat#AF2018). To detect human hematopoietic cells, Pacific Blue-, PE-, APC- or FITC labeled anti-human CD45 was used (BD Biosciences). FITC anti-CD33, PE anti-CD13, FITC anti-CD41a, FITC anti-HLA DR, and PE anti-CD19 antibodies were obtained from BD Pharmingen. PE anti-CD14, PE anti-CD15 and PE anti-GlyA were acquired from Immunotech Beckman Coulter. To determine pluripotency, PE anti-SSEA3 (BD Biosciences) and PE- or AlexaFluor488 anti-Oct4 (BD Biosciences). Rabbit anti-human dopamine receptor antibodies; DRD1 (Cat#324390), DRD2 (Cat#324393), DRD3 (Cat#324402), DRD4 (Cat#324405) and DRD5 (Cat#324408) were sourced from EMD Chemical. Anti-rabbit Alexa-Fluor-488 (Molecular Probes) was used as the secondary antibody. Primary anti-p53 (Cat#2527) and anti-p21 (Cat#2947) rabbit IgG sourced from Cell Signaling Technology were used to stain fixed and permeabilized cells. Anti-rabbit alexa-Fluor-546 (Molecular Probes) was used as the secondary antibody.

[7] = tested on: neoplastic hPSCs (v1H9-Oct4-GFP); assay: Flow cytometry of Oct4 in neoplastic hPSCs; format: cell-based, human
[8] = tested on: AML LSCs (CD45+CD33+ blast engraftment); assay: Xenotransplantation of compound-treated AML cells into NSG mice; format: in vivo; conditions: 10 μM, 24 h ex vivo treatment
Experimental: Xenotransplantation Assays. NOD.Cg-Prkdc^scid II2rg^tm1Wjl/SzJ adult mice (NSG) were sub-lethally irradiated with 315 rads 24 hours prior transplantation. 0.8-1.0×10^7 AML MNCs or 1.5-1.8×10^5 CB lin-hematopoietic cells treated with compound or DMSO-vehicle for 24 h were injected via tail vein (IV). After 6-10 weeks, animals were culled, and the BM and spleen were analyzed for the presence of human cells by flow cytometry (LSRII, BD) and data was analyzed using FlowJo software (Tree Star Inc). For secondary HSPC transplants, equal number of engrafted human cells from CB lin− transplants were injected IV in adult irradiated NSG mice as described for primary transplants.
To delineate whether the inhibition of AML-blasts detected in vitro was due to the compounds affecting the neoplastic stem cell compartment, xenotransplantation studies (Dick, 2008) that functionally define LSCs and hematopoietic stem cells (HSCs) were conducted (FIG. 12).

[9] = tested on: hematopoietic stem and progenitor cells (HSPC, CB lin-); assay: Methylcellulose colony-forming assay, HSPC (CB lin-)
Experimental: as §1, §2

[10] = Homo sapiens, 10 μM, 590 compound screen

Br.CCCN(CCC)[C@@H]1CCc2ccc(O)cc2C1 [7OH-DPAT, R(+)-7-Hydroxy-DPAT hydrobromide]
number of AML cells [1]: increased the number of AML cells

Nc1ccn([C@@H]2O[C@H](CO)[C@@H](O)[C@@H]2O)c(=O)n1 [AraC, Arabinofuranosyl Cytidine]
effective concentration (ECArac) ([2]; concentration that reduced AML-blast-CFU while retaining HSPC function, single drug): 100 nM

Oc1cc2c(cc1O)[C@@H](c1ccccc1)CNCC2 [SKF38393, (R)-(+)-SKF-38393 hydrochloride]
number of AML cells [1]: significant reduction

Cn1cnc([N+](=O)[O-])c1Sc1ncnc2nc[nH]c12 [azathioprine]
activity at 10 µM [3, 10]: > 30%

CN(C)CCCN1c2ccccc2Sc2ccc(Cl)cc21 [chlorpromazine, Chlorpromazine hydrochloride]
normalized cell number / toxicity [4]: toxic
cytotoxicity of AML cell lines [5]: significant effect
cell count ([5]; 72 h, relative to control): eradicate the AML cell lines
number of AML cells [1]: reduced the number of AML cells

CN1CCN(C2=Nc3cc(Cl)ccc3Nc3ccccc32)CC1 [clozapine, Clozapine]
cytotoxicity of AML cell lines [5]: significant effect

COc1cc([C@@H]2c3cc4c(cc3[C@@H](O[C@@H]3O[C@@H]5CO[C@@H](C)O[C@H]5[C@H](O)[C@H]3O)[C@H]3COC(=O)[C@H]23)OCO4)cc(OC)c1O [etoposide]
accumulation of cell stress marker p53 [6]: high levels
accumulation of p21 [6]: high levels

OCCN1CCN(CCCN2c3ccccc3Sc3ccc(C(F)(F)F)cc32)CC1 [fluphenazine]
hit in extended screen (loss of pluripotency) [3]: hits

CNC1CC(c2ccc(Cl)c(Cl)c2)c2ccccc21 (stereo not shown) [indatraline]
activity at 10 µM ([3]; Homo sapiens): > 30%

OC(c1cc(C(F)(F)F)nc2c(C(F)(F)F)cccc12)C1CCCCN1 (stereo not shown) [mefloquine]
activity at 10 µM [3, 10]: > 30%
EC50 ([3]; Homo sapiens, dose response, v1H9-Oct4-GFP, read-out: EC50 (reduction in GFP intensity)): < 10 µM
cell number [7]: reductions
levels of Oct4 [7]: reductions
AML-blast CFU formation ([2]; dose not stated in the sentence (0.1, 1, 10 μM tested)): reduced
leukemic disease-initiating AML LSC capacity [8]: ineffective

CN1CCN(CCCN2c3ccccc3Sc3ccc(Cl)cc32)CC1 [prochlorperazine]
hit in extended screen (loss of pluripotency) [3]: hits

CC[C@@H](C(=O)[C@@H](C)[C@@H](O)[C@H](C)[C@@H]1O[C@@H]([C@@H](CC)C(=O)O)CC[C@@H]1C)[C@H]1O[C@]2(C=C[C@@H](O)[C@]3(CC[C@@](C)([C@H]4CC[C@](O)(CC)[C@H](C)O4)O3)O2)[C@H](C)C[C@@H]1C [salinomycin]
HSPC CFU potential [9]: reduced
AML-blast CFU potential ([2]; 1 μM): reduced
AML-blast CFU potential ([2]; 10 μM): reduced

B1: BMP4: differentiation control, 100 ng/ml of BMP4 (protein, UniProt P12644 293-408, looked up)
Bone morphogenetic protein 4: SPKHHSQRARKKNKNCRRHSLYVDFSDVGWNDWIVAPPGYQAFYCHGDCPFPLADHLNSTNHAIVQTLVNSVNSSIPKACCVPTELSAISMLYLDEYDKVVLKNYQEMVVEGCGCR
accumulation of cell stress marker p53 [6]: no accumulation
accumulation of p21 [6]: no accumulation
